Assay results taken from publication PMC11626197 (Proceedings of the National Academy of Sciences of the …, 2024).
Numbered stars: 1 amine (or outer) side, 2 acyl side, 3 side chain; on linkers, the order of the positions; unused ones are H or OH. Bridge positions count the residues as written; N and C are the ends. Square brackets hold non-standard residues; d marks the D form. Ends that are not written are not given here. Peptide text beside a SMILES is read from it. ξ: configuration not given here. ξLeu(ψCOCO) = CC(C)CC(N[*:1])C(=O)C(=O)[*:2]; X1 = CSCCC(N[*:1])C(=O)C(=O)[*:2]

Legend:
[1] = system: HeLa; experiment: Cell detachment in HeLa cells; assay type: cell-based; conditions: HeLa cell line
[2] = system: Huh7; experiment: Cell detachment in Huh7 cells; assay type: cell-based; conditions: Huh7 cell line
[3] = system: herpes simplex virus (HSV); conditions: for IC50: 42 h; for antiviral activity: HSV, result in words
[4] = system: lymphocytic choriomeningitis virus (LCMV); conditions: for IC50: 1 h
[5] = system: MC57G fibroblast cells; conditions: for cytotoxic effects: LIVE/DEAD staining, 2 days post-treatment
[6] = target: chymotrypsin (Bos taurus, UniProt P00766); experiment: Chymotrypsin inhibition assay; assay type: biochemical; conditions: for protease inhibitory activity: chymotrypsin, result in words
[7] = target: T1, human neutrophil elastase (Homo sapiens, UniProt P08246); experiment: Human neutrophil elastase inhibition assay; assay type: biochemical; conditions: for protease inhibitory activity: human neutrophil elastase, result in words
T1 sequence (P08246 30-267): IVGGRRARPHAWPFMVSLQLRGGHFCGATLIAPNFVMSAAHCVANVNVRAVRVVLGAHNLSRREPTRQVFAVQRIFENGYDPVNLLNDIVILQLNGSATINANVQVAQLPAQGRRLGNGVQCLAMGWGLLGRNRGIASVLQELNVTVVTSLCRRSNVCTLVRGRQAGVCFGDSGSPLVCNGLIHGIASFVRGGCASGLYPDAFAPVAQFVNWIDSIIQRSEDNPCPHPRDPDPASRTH

[8] = target: human cathepsin B (Homo sapiens, UniProt P07858); experiment: Cathepsin B inhibition assay; assay type: biochemical; conditions: for protease inhibitory activity: cathepsin B, result in words
[9] = system: influenza A virus (IAV); experiment: Antiviral assay against IAV; assay type: cell-based, IAV strain A/WSN/1933 (H1N1); conditions: result in words

| Molecule | cell detachment [1] | cell detachment [2] | IC50 [3] | IC50 [4] | cytotoxic effects [5] | concentration at which cell detachment from the assay plates was observed ([5]; low levels / slight detachment) | protease inhibitory activity [6] | protease inhibitory activity [7] | protease inhibitory activity [8] | antiviral activity [9] | antiviral activity [3] | antiviral activity [4] | IC50 [6] | IC50 [7] | IC50 [8] |
| --- | --- | --- | --- | --- | --- | --- | --- | --- | --- | --- | --- | --- | --- | --- | --- |
| CC[C@H](C)[C@H](N)C(=O)N[C@@H](CC(N)=O)C(=O)N[C@@H](C)C(=O)N[C@H](C(=O)NCC(=O)N[C@@H](CCC(N)=O)C(=O)N[C@@H](CCCNC(=N)N)C(=O)N[C@H](C(=O)N[C@@H](CC(=O)O)C(=O)N[C@@H](CO)C(=O)N[C@@H](CO)C(=O)N[C@H](C(=O)N[C@@H](Cc1ccccc1)C(=O)N[C@H](C(=O)N[C@@H](Cc1c[nH]cn1)C(=O)N[C@H]1CSSC[C@@H](C(=O)NCC(=O)N[C@H](C(=O)N[C@@H](C)C(=O)NC(CC(C)C)C(=O)C(=O)NCC(=O)N[C@@H](CO)C(=O)N[C@H](C(=O)N[C@H](C(=O)N[C@@H](CC(=O)O)C(=O)N2CCC[C@H]2C(=O)N[C@@H](Cc2c[nH]cn2)C(=O)N[C@@H](CCCNC(=N)N)C(=O)N[C@@H](Cc2ccccc2)C(=O)N[C@@H](CC(=O)O)C(=O)N[C@@H](CCSC)C(=O)N[C@@H](CC(C)C)C(=O)N2CCC[C@H]2C(=O)O)[C@@H](C)CC)C(C)C)C(C)C)NC(=O)[C@H](C(C)C)NC(=O)[C@H](Cc2ccccc2)NC(=O)[C@H](Cc2ccccc2)NC(=O)[C@H](CC(=O)O)NC1=O)[C@@H](C)O)C(C)C)[C@@H](C)CC)[C@@H](C)O (stereo partly shown) [Compound 4, RasA*-Tyn] (H-INATGQRIDSSVFTHCDFFVCGVA[ξLeu(ψCOCO)]GSVIDPHRFDMLP-OH; disulfide 16-21; N-terminus assumed) | not detected | not detected | 28.8 µM | 15.2 µM | no significant cytotoxic effects | above 50 µM |  |  |  |  |  |  |  |  |  |
| CC[C@H](C)[C@H](N)C(=O)N[C@@H](CC(N)=O)C(=O)N[C@@H](C)C(=O)N[C@H](C(=O)NCC(=O)N[C@@H](CCC(N)=O)C(=O)N[C@@H](CCCNC(=N)N)C(=O)N[C@H](C(=O)N[C@@H](CC(=O)O)C(=O)N[C@@H](CO)C(=O)N[C@@H](CO)C(=O)N[C@H](C(=O)N[C@@H](Cc1ccccc1)C(=O)N[C@H](C(=O)N[C@@H](Cc1c[nH]cn1)C(=O)N[C@H]1CSSC[C@@H](C(=O)NCC(=O)N[C@H](C(=O)N[C@@H](C)C(=O)N[C@@H](CC(C)C)C(=O)N[C@@H](Cc2ccc(O)cc2)C(=O)NCC(=O)N[C@@H](CO)C(=O)N[C@H](C(=O)N[C@H](C(=O)N[C@@H](CC(=O)O)C(=O)N2CCC[C@H]2C(=O)N[C@@H](Cc2c[nH]cn2)C(=O)N[C@@H](CCCNC(=N)N)C(=O)N[C@@H](Cc2ccccc2)C(=O)N[C@@H](CC(=O)O)C(=O)N[C@@H](CCSC)C(=O)N[C@@H](CC(C)C)C(=O)N2CCC[C@H]2C(=O)O)[C@@H](C)CC)C(C)C)C(C)C)NC(=O)[C@H](C(C)C)NC(=O)[C@H](Cc2ccccc2)NC(=O)[C@H](Cc2ccccc2)NC(=O)[C@H](CC(=O)O)NC1=O)[C@@H](C)O)C(C)C)[C@@H](C)CC)[C@@H](C)O [Compound 6, RasA*] (H-INATGQRIDSSVFTHCDFFVCGVALYGSVIDPHRFDMLP-OH; disulfide 16-21; N-terminus assumed) |  |  | > 200 µM | > 200 µM |  |  | did not exhibit any protease inhibitory and antiviral activity | did not exhibit any protease inhibitory and antiviral activity | did not exhibit any protease inhibitory and antiviral activity | did not exhibit any protease inhibitory and antiviral activity | did not exhibit any protease inhibitory and antiviral activity | did not exhibit any protease inhibitory and antiviral activity |  |  |  |
| GTVTGSILTPIDYGCFNPFLCSVAMYGGVIDPIRFPNAWREL (disulfide 15-21) [Compound 5, G-RcsA*] |  |  | > 200 µM | > 200 µM |  |  | did not exhibit any protease inhibitory and antiviral activity | did not exhibit any protease inhibitory and antiviral activity | did not exhibit any protease inhibitory and antiviral activity | did not exhibit any protease inhibitory and antiviral activity | did not exhibit any protease inhibitory and antiviral activity | did not exhibit any protease inhibitory and antiviral activity |  |  |  |
| GTVTGSILTPIDYGCFNPFLCSVA[X1]GGVIDPIRFPNAWREL (disulfide 15-21) [Compound 3, G-RcsA*-Tyn] |  |  | 69.7 µM | 37 µM | no significant cytotoxic effects |  |  |  |  |  |  |  | 9.2 µM | 5.76 µM | 3.74 µM |
